Experimental data published in article PMC9964390, “Design, Synthesis and Phenotypic Profiling of Simplified Gedatolisib Analogues” (Pharmaceuticals, 2023).
Read-outs that look alike come from different tables or passages of the source.

Assays:
CCRF-CEM = assay: MTT cell viability assay; type: cell-based, human; details: for CC50 / Emax: Homo sapiens; for CC50: 95% confidence interval in brackets; for Emax: read-out: Emax (maximum effect at maximum concentration used)
Method: (§1) For the evaluation of cellular cytotoxicity in cancer cell lines, the compounds were tested at concentrations ranging from 0.00003 μM to 150 μM. Immortalized cancer cells were selected: PC-3 (PTEN-mutated prostate adenocarcinoma), MCF-7 (PI3KCA-mutated breast carcinoma), K562 (P53-mutated chronic myeloid leukemia), CCRF-CEM (acute lymphoblastic leukemia with mutation in PTEN) and MOLT-4 (acute lymphoblastic leukemia with mutation in PI3KR1/PTEN). Peripheral blood mononuclear cells (PBMCs) were used to determine the cytotoxic selectivity index (SI). All immortalized cells were cultured in RPMI 1640 medium with 10% (v/v) FBS, streptomycin + penicillin, at 37 °C in a humidified incubator containing 5% CO2.
(§2) Cell viability was assessed by the MTT assay. The lines selected for this study were plated according to their respective densities, which ranged from 3 × 10^4 to 4 × 10^4 cells per well. Subsequently, they were treated with test compounds at different concentrations (0.00003 μM to 150 μM), gedatolisib and GSK-1059615.
(§3) After incubation, the plates are centrifuged at 440× g for 10 min. Then, 110 μL of the supernatant was withdrawn and each well received 10μL of the MTT solution. The plate was again incubated in an oven at 37 °C and 5% CO2 for 3 to 4 h. At the end of the incubation time, 100 μL of SDS-HCL detergent was added to solubilize the formazan crystals. The plate was shaken on an automatic overnight shaker and then read at a wavelength of 595 nm on the Molecular Devices Spectramax M5 plate reader.

MOLT-4 = assay: MTT cell viability assay; type: cell-based, human; details: for CC50 / Emax: Homo sapiens; for CC50: 95% confidence interval in brackets; for Emax: read-out: Emax (maximum effect at maximum concentration used); for loss of cytotoxic potency at 48 h versus 72 h (MTT): MOLT-4
Method: as §1, §2, §3

CCRF-CEM cell line = assay: Muse Cell Cycle Kit; type: cell-based, human; details: 48 h
Method: The Guava Muse Luminex® Cell Cycle Kit (catalog n^o MCH100106, Luminex) contains the DNA marker propidium iodide (PI) and RNAse A to avoid nonspecific labelling.
After 48 h of incubation in an incubator at 37 °C with 5% CO2, 1 mL of the MOLT-4 cell solution and 500 µL of the CCRF-CEM cell solution, contained in the wells, were transferred to Eppendorf tubes and centrifuged at 300× g for 5 min. The volumes used ensured that the cell density remained within the recommended range (1 × 10^6 to 4 × 10^6 cells/mL) at the end of the 48 h incubation period.
The supernatant was discarded, and the pellet formed was resuspended in 1 mL of saline PBS, homogenised, and centrifuged at 300× g for 5 min. The formed pellet was resuspended in residual PBS by homogenization. To fix cellular events, 1 mL of ice-cold 70% alcohol was added dropwise into the tubes and vortexed at medium speed. The samples were incubated, before staining, for at least 3 h at −20 °C.
At the end of the incubation time at −20 °C, the samples were centrifuged at 300× g for 5 min, and then the supernatant was discarded and resuspended in 250 µL of PBS. The samples were again centrifuged at 300× g for 5 min and the supernatant discarded, which constituted the washing step. The pellet formed was resuspended in 200 µL of the Guava Muse Luminex® Cell Cycle, and the tubes were incubated for 30 min at room temperature, away from light.
After incubation, the samples were read in Guava Muse Luminex®, and the data with the histograms generated, which contain information on the percentage of the different phases of the cell cycle, were analysed in the statistical program Prism6. This methodology was performed in duplicate of three independent experiments.

[1] = test system: PI3K activation and phosphorylation in CCRF-CEM cell line; assay: Muse PI3K Activation Dual Detection Kit; type: cell-based, human
Method: The methodology evaluates the activation and phosphorylation of PI3K and was performed from the labelling with the Guava Muse Luminex® PI3K Activation Dual Detection Kit (catalog n^o. MCH200103, Luminex) containing the anti-AKT/PKB-PECy5 antibody to measure total PI3K and the anti-phospho-AKT (Ser473)-Alexa Fluor® 555 antibody for measurement of activated PI3K.
Following 48 h of incubation in an incubator at 37 °C with 5% CO2, 1 mL of the cell solution was transferred to an Eppendorf tube, washed with PBS and centrifuged at 300× g for 5 min. The supernatant was discarded, and the pellet formed was resuspended in 500 µL of PBS. The samples were again centrifuged at 300× g for 5 min and the supernatant discarded.
Then the cell solutions were resuspended in 200 µL of assay buffer (Part no. CS202124), followed by the addition of 200 µL of fixation buffer (Part n^o. CS202122), ending up with a total volume of 400 µL per sample. The samples were incubated for 5 min on ice and centrifuged at 300× g for 5 min and the supernatant discarded.
Cells were permeabilized by adding 200 µL of ice-cold permeabilization buffer (Part n^o. CS202125) and then incubated on ice for 5 min and centrifuged at 300× g for 5 min, and the supernatant was discarded. The formed pellets were resuspended in 450 µL of assay buffer and vortexed at medium speed. In total, 90 µL of the solution from each sample was aliquoted into a new tube, and 10 µL of the cocktail solution containing Anti-phospho-Akt (Ser473), Alexa Fluor®555 and Anti-Akt/PKB, Pecy5 was added. The samples were homogenised and incubated for 30 min in the dark at room temperature.
After the incubation step, 100 µL of assay buffer was added per sample and centrifuged at 300× g for 5 min, and the supernatant was discarded. The formed pellets were resuspended in 200 µL of assay buffer and vortexed, and the samples were read in Guava Muse Luminex®. Data from three independent experiments performed in duplicate were analysed in the Prism6 program to determine the percentage of cells expressing activated and inactivated PI3K.

MCF7 = assay: Muse Count & Viability Kit (flow cytometry); set-up: Emax: dose or concentration left out as unconfirmed

SMILES	loss of cytotoxic potency at 48 h versus 72 h (MTT) (CCRF-CEM)	CC50 (CCRF-CEM; 48 h MTT) [µM]	Emax (CCRF-CEM; 48 h MTT) [%]	CC50 (CCRF-CEM; 72 h MTT) [µM]	Emax (CCRF-CEM; 72 h MTT) [%]	CC50 (MOLT-4; MOLT-4, 48 h MTT) [µM]	Emax (MOLT-4; MOLT-4, 48 h MTT) [%]	CC50 (MOLT-4; MOLT-4, 72 h MTT) [µM]	Emax (MOLT-4; MOLT-4, 72 h MTT) [%]	loss of cytotoxic potency at 48 h versus 72 h (MTT) (MOLT-4)	action on the cell cycle (CCRF-CEM cell line; its CC50 value (50 µM))	percentage of inactivated cells raised to ([1]; concentration 10 times higher than its CC50) [%]	percentage of inactivated cells raised to ([1]; tested at its CC50) [%]	cytotoxic activity (MCF7; MCF-7, Muse Count & Viability Kit, 72 h)	action on the cell cycle (CCRF-CEM cell line; both concentrations tested (0.6 µM and 6 µM))	increase of the percentage of cells in the inactivated state ([1]; at its CC50 (~6 μM) and 10 times lower (0.6 μM))	Emax (MCF7; Homo sapiens, MCF7, 72 h, read-out: maximum effect (Emax)) [%]
c1ccc(N2CCN(c3nc(N4CCCNCC4)nc(N4CCOCC4)n3)CC2)cc1 [5f, 4-(4-(1,4-Diazepan-1-yl)-6-(4-phenylpiperazin-1-yl)-1,3,5-triazin-2-yl)morpholine]	less than 2 fold	11.1	69	6.25	93	36.5	80	9.76	93	less than 4 fold	cell cycle arrest in G0/G1	65	30	inactive	–	–	–
CN(C)C1CCN(C(=O)c2ccc(NC(=O)Nc3ccc(-c4nc(N5CCOCC5)nc(N5CCOCC5)n4)cc3)cc2)CC1 [Gedatolisib, gedatolisib]	~10 fold	0.14	94	0.03	90	0.15	92	0.02	93	~10 fold	–	–	–	–	cell cycle arrest in the G0/G1 phase	about 75%	54
